From patent US20240293345A1, “COMBINATIONS OF LOCAL ANESTHETICS FOR IMPROVED PAIN RELIEF” (priority 2021, published 2024)

What was measured:
[1] = Case studies: local anesthesia by injection to the mouth region before dental procedures; type: in vivo, human; conditions: for anesthetic effect of one local anesthetic alone: cases previously observed by the inventors; for local anesthetic effect / pain relief during dental procedures: patients with a history of poor pain relief after just one local anesthetic, injection to mouth region
Source text: The experiments and disclosures provided herein are based on 9 case studies performed on patients that had, or previously has had phenotype red hair. The inventors performed odontological procedures on the patients and compared pain relief to prior experiences with local anesthetics.
9 patients with a history of poor pain relief after administration of just one local anesthetic received a combination of lidocaine and prilocaine before various dental procedures where performed. The patients pain sensation was the noted in case studies kept at the inventor's clinic.
Commercially available Xylocain Dental Adrenaline (lidocaine HCL 20 mg/mL with epinephrine 12.5 μg/mL) and Citanest Dental Octopressin (prilocaine HCL 30 mg/mL and felypressin 0.54 μg/mL) was administered by injection to mouth region of the patient for pain relief. Both Xylocain Dental Adrenaline and Citanest Dental Octopressin was provided in cartridges containing 1.8 mL of solution comprising active ingredients in said concentrations.

[2] = given subcutaneously; cited from earlier work
[3] = Local anesthesia for a dislocated shoulder (incident described by patient 192293); type: in vivo, human; conditions: three attempts of administration, patient's own account
[4] = local anesthesia or nerve blocks; cited from earlier work
[5] = in vivo; cited from earlier work

| Compound | anesthetic effect of one local anesthetic alone [1] | local anesthetic effect / pain relief during dental procedures [1] | local anesthetic effect / pain relief during dental procedures ([1]; listed as Lidocaine) | anesthetic effects in redheads [2] | pain relief [3] | onset of effect [4] | metabolism and excretion [5] |
| --- | --- | --- | --- | --- | --- | --- | --- |
| CCN(CC)CC(=O)Nc1c(C)cccc1C [lidocaine] | did not provide adequate anesthetic effect | Poor effect | not effective | resistant to the anesthetic effects | without obtaining adequate pain relief | within several minutes | – |
| CCN(CC)CCOC(=O)c1ccc(N)cc1 [novocaine] | – | – | – | resistant to the anesthetic effects | – | – | – |
| CCCNC(C)C(=O)Nc1ccccc1C (stereo not drawn) [prilocaine] | did not provide adequate anesthetic effect | – | – | – | – | – | rapidly metabolized by the liver and excreted in the urine as o-toluidine |
